In patent US4861788A, “Antibacterial 1-normon-2-yl-heterocyclic compounds” (Beecham Group plc, priority 1983, dated 1989):
≈ marks a conversion by molar mass, not a printed value. Like-named read-outs stand apart in the source and are kept apart here.

How the values were obtained:
[1] = system: Staph. aureus 152 (pen. sens); assay: MIC against veterinary bacteria in vitro (Diagnostic Sensitivity Test Agar); details: Staphylococcus aureus, 18 h
Experimental: (§2) The activity of the normonyl derivatives of the Examples against various veterinarily important bacteria, was assayed in vitro using two-fold serial dilutions in Diagnostic Sensitivity Test Agar inoculated with 10^4 organisms.

M. hyopneumoniae Str. 11 = assay: MIC against Mycoplasma in vitro (Friis broth with agarose); type: cell-based; details: Mesomycoplasma hyopneumoniae
M. hyopneumoniae UCD 1 = assay: as above; type: cell-based; details: Mesomycoplasma hyopneumoniae, UCD1, 144 h
M. hyorhinis ATCC 23234 = assay: as above; type: cell-based; details: Mesomycoplasma hyorhinis, ATCC23234, 144 h
Staph. aureus Oxford = assay: MIC against veterinary bacteria in vitro (Diagnostic Sensitivity Test Agar); details: Staphylococcus aureus, 18 h
Experimental: as §2

M. hyopneumoniae JF 435 = assay: MIC against Mycoplasma in vitro (Friis broth with agarose); type: cell-based; details: Mesomycoplasma hyopneumoniae, JF435, 144 h
E. coli E1 = assay: MIC against veterinary bacteria in vitro (Diagnostic Sensitivity Test Agar); details: Escherichia coli, E1, 18 h
Experimental: as §2

M. hyopneumoniae TAM 6N = assay: MIC against Mycoplasma in vitro (Friis broth with agarose); type: cell-based; details: Mesomycoplasma hyopneumoniae, TAM6N, 144 h
M. dispar NCTC 10125 = assay: as above; type: cell-based; details: 144 h
Past. multocida PA2 = assay: MIC against veterinary bacteria in vitro (Diagnostic Sensitivity Test Agar); details: Pasteurella multocida, PA2, 18 h
Experimental: as §2

[2] = system: Staph. aureus B4 (pen. resistant); assay: as above; details: Staphylococcus aureus, 18 h
Experimental: as §2

E. coli ESS = assay: MIC against human bacteria in vitro (nutrient agar, chocolated horse blood); type: cell-based; details: Escherichia coli
Experimental: (§1) The activity of the normonyl derivaties of the Examples against various bacteria which are important in diseases of humans, was assayed in vitro using serial dilutions in nurient agar with 5% chocolated horse blood.

Staph. aureus W2827 = assay: as above; type: cell-based; details: Staphylococcus aureus
Experimental: as §1

Strep. faecalis I = assay: as above; type: cell-based; details: Enterococcus faecalis
Experimental: as §1

Bacillus subtilis 6633 = assay: as above; type: cell-based
Experimental: as §1

Bord. bronchiseptica B09 = assay: MIC against veterinary bacteria in vitro (Diagnostic Sensitivity Test Agar); details: Bordetella bronchiseptica, B09, 18 h
Experimental: as §2

M. pneumoniae ATCC 15492 = assay: MIC against Mycoplasma in vitro (Friis broth with agarose); type: cell-based; details: Mycoplasmoides pneumoniae, ATCC15492, 144 h
[3] = system: Strep. suis (group D) SPS11; assay: MIC against veterinary bacteria in vitro (Diagnostic Sensitivity Test Agar); details: Streptococcus suis, 18 h
Experimental: as §2

E. coli NCTC 10418 = assay: as above; details: Escherichia coli, NCTC10418, 18 h
Experimental: as §2

[4] = system: M. bovigenitalium ATCC 14173; assay: MIC against Mycoplasma in vitro (Friis broth with agarose); type: cell-based; details: 144 h
Strep. uberis SPU1 = assay: MIC against veterinary bacteria in vitro (Diagnostic Sensitivity Test Agar); details: Streptococcus uberis, SPU1, 18 h
Experimental: as §2

[5] = system: M. hyosynoviae ATCC 25591; assay: MIC against Mycoplasma in vitro (Friis broth with agarose); type: cell-based; details: 144 h
Strep. agalactiae SPA1 = assay: MIC against veterinary bacteria in vitro (Diagnostic Sensitivity Test Agar); details: Streptococcus agalactiae, SPA1, 18 h
Experimental: as §2

Bord. bronchiseptica B08 = assay: as above; details: Bordetella bronchiseptica, B08, 18 h
Experimental: as §2

Strep. dysgalactiae SPD1 = assay: as above; details: Streptococcus dysgalactiae, SPD1, 18 h
Experimental: as §2

[6] = system: M. hyopneumoniae NCTC 101101; assay: MIC against Mycoplasma in vitro (Friis broth with agarose); type: cell-based; details: Mesomycoplasma hyopneumoniae, NCTC101101, 144 h
Past. multocida PA1 = assay: MIC against veterinary bacteria in vitro (Diagnostic Sensitivity Test Agar); details: Pasteurella multocida, PA1, 18 h
Experimental: as §2

M. hyorhinis ATCC 25021 = assay: MIC against Mycoplasma in vitro (Friis broth with agarose); type: cell-based; details: Mesomycoplasma hyorhinis, ATCC25021, 144 h
Past. haemolytica PA5 = assay: MIC against veterinary bacteria in vitro (Diagnostic Sensitivity Test Agar); details: Mannheimia haemolytica, PA5, 18 h
Experimental: as §2

M. hyopneumoniae MS 16 = assay: MIC against Mycoplasma in vitro (Friis broth with agarose); type: cell-based; details: Mesomycoplasma hyopneumoniae, MS16, 144 h
[7] = 144 h, M. hyopneumoniae Str. 11, 6 days at 37° C, read-out: MIC
[8] = M. hyopneumoniae UCD 1, 6 days at 37° C, read-out: MIC
[9] = M. hyorhinis ATCC 23234, 6 days at 37° C, read-out: MIC
[10] = M. hyopneumoniae JF 435, 6 days at 37° C, read-out: MIC
[11] = M. hyopneumoniae TAM 6N, 6 days at 37° C, read-out: MIC
[12] = human, E. coli ESS, 18 hours at 37° C, read-out: MIC
[13] = human, Staph. aureus W2827, 18 hours at 37° C, read-out: MIC
[14] = human, Strep. faecalis I, 18 hours at 37° C, read-out: MIC
[15] = human, Bacillus subtilis 6633, 18 hours at 37° C, read-out: MIC
[16] = M. pneumoniae ATCC 15492, 6 days at 37° C, read-out: MIC
[17] = M. hyosynoviae ATCC 25591, 6 days at 37° C, read-out: MIC
[18] = M. hyopneumoniae NCTC 101101, 6 days at 37° C, read-out: MIC
[19] = M. hyorhinis ATCC 25021, 6 days at 37° C, read-out: MIC
[20] = M. hyopneumoniae MS 16, 6 days at 37° C, read-out: MIC

Compound	MIC [1] [µg/mL]	MIC (M. hyopneumoniae Str. 11; [7]) [µg/mL]	MIC (M. hyopneumoniae UCD 1; [8]) [µg/mL]	MIC (M. hyorhinis ATCC 23234; [9]) [µg/mL]	MIC (Staph. aureus Oxford) [µg/mL]	MIC (M. hyopneumoniae JF 435; [10]) [µg/mL]	MIC (E. coli E1) [µg/mL]	MIC (M. hyopneumoniae TAM 6N; [11]) [µg/mL]	MIC (Past. multocida PA2) [µg/mL]	MIC [2] [µg/mL]	MIC (E. coli ESS; [12]) [µg/mL]	MIC (Bord. bronchiseptica B09) [µg/mL]	MIC [3] [µg/mL]	MIC (E. coli NCTC 10418) [µg/mL]	MIC (Strep. uberis SPU1) [µg/mL]	MIC (Strep. agalactiae SPA1) [µg/mL]	MIC (Bord. bronchiseptica B08) [µg/mL]	MIC (Strep. dysgalactiae SPD1) [µg/mL]	MIC (Past. multocida PA1) [µg/mL]	MIC (Past. haemolytica PA5) [µg/mL]	further results
COC(=O)CCCCCCCCn1nnnc1C=C(C)CC1OCC(CC2OC2C(C)C(C)O)C(O)C1O (stereo not shown) [Example 13, 1-(8-Methoxycarbonyloctyl)-5-(1-normon-2-yl)-1H-tetrazole A]	20 (≈ 37.1 µM)	> 10	> 10	> 10	40 (≈ 74.3 µM)	> 10	> 80	> 10	5 (≈ 9.28 µM)	> 80	> 64	80 (≈ 149 µM)	> 80	> 80	40 (≈ 74.3 µM)	> 80	> 80	> 80	40 (≈ 74.3 µM)	> 80	MIC (M. dispar NCTC 10125; M. dispar NCTC 10125, 6 days at 37° C, read-out: MIC): > 10 µg/mL; MIC (Staph. aureus W2827; [13]): > 64 µg/mL; MIC (Strep. faecalis I; [14]): > 64 µg/mL; MIC (Bacillus subtilis 6633; [15]): > 64 µg/mL; MIC (M. pneumoniae ATCC 15492; [16]): > 10 µg/mL; MIC ([4]; M. bovigenitalium ATCC 14173, 6 days at 37° C, read-out: MIC): 5 µg/mL (≈ 9.28 µM); MIC [5, 17]: > 10 µg/mL; MIC [6, 18]: > 10 µg/mL; MIC (M. hyorhinis ATCC 25021; [19]): > 10 µg/mL; MIC (M. hyopneumoniae MS 16; [20]): > 10 µg/mL
CC(=CC(=O)NN)CC1OCC(CC2OC2C(C)C(C)O)C(O)C1O (stereo not shown) [Example 9, Monohydrazide A]	80 (≈ 223 µM)						> 80		80 (≈ 223 µM)	80 (≈ 223 µM)		> 80	> 80	> 80	80 (≈ 223 µM)	> 80	> 80	> 80	40 (≈ 112 µM)	40 (≈ 112 µM)	MIC (M. hyopneumoniae Str. 11; STR.11, 144 h): 5 µg/mL (≈ 13.9 µM); MIC (M. hyopneumoniae UCD 1): 10 µg/mL (≈ 27.9 µM); MIC (M. hyorhinis ATCC 23234): > 10 µg/mL; MIC (M. hyopneumoniae JF 435): 10 µg/mL (≈ 27.9 µM); MIC (M. hyopneumoniae TAM 6N): 10 µg/mL (≈ 27.9 µM); MIC (M. dispar NCTC 10125): 2.5 µg/mL (≈ 6.97 µM); MIC (E. coli ESS; 18 h): ≥ 100 µg/mL; MIC (Staph. aureus W2827; W2827, 18 h): ≥ 100 µg/mL; MIC (Strep. faecalis I; 18 h): > 100 µg/mL; MIC (Bacillus subtilis 6633; Bacillus subtilis, 6633, 18 h): ≥ 100 µg/mL; MIC (M. pneumoniae ATCC 15492): > 10 µg/mL; MIC [4]: 0.5 µg/mL (≈ 1.39 µM); MIC [5]: 10 µg/mL (≈ 27.9 µM); MIC [6]: 10 µg/mL (≈ 27.9 µM); MIC (M. hyorhinis ATCC 25021): 10 µg/mL (≈ 27.9 µM); MIC (M. hyopneumoniae MS 16): 5 µg/mL (≈ 13.9 µM)
CC(=Cc1nnnn1Cc1ccc([N+](=O)[O-])cc1)CC1OCC(CC2OC2C(C)C(C)O)C(O)C1O (stereo not shown) [Example 12, 1-(p-Nitrobenzyl)-5-(1-normon-2-yl)tetrazole A]	> 80	2.5 (≈ 4.96 µM)	5 (≈ 9.93 µM)	5 (≈ 9.93 µM)	> 80	5 (≈ 9.93 µM)	> 80	5 (≈ 9.93 µM)	> 80	> 80	100 (≈ 199 µM)	> 80	> 80	> 80	80 (≈ 159 µM)	> 80	> 80	> 80	> 80	> 80	MIC (M. dispar NCTC 10125): 1 µg/mL (≈ 1.99 µM); MIC (Staph. aureus W2827; [13]): 100 µg/mL (≈ 199 µM); MIC (Strep. faecalis I; [14]): > 100 µg/mL; MIC (Bacillus subtilis 6633; [15]): 100 µg/mL (≈ 199 µM); MIC (M. pneumoniae ATCC 15492; [16]): > 10 µg/mL; MIC [5, 17]: 2.5 µg/mL (≈ 4.96 µM); MIC [6, 18]: 5 µg/mL (≈ 9.93 µM); MIC (M. hyorhinis ATCC 25021; [19]): 2.5 µg/mL (≈ 4.96 µM); MIC (M. hyopneumoniae MS 16; [20]): 2.5 µg/mL (≈ 4.96 µM)
